Series [1] is described as follows: Dynamic light scattering (DLS/MADLS) of micelles in physiological solution. The class given is physicochemical. The procedure:
The size of micelles and micellar aggregates was estimated by the dynamic light scattering (DLS) method using NanoBrook OMNI ZetaPALS (Brookhaven Instruments, USA) with a detection angle 90° and 640 nm laser. The presented diameters are mean values from the intensity-weighted size distribution. The composition of the samples was as follows: dendron (1.0 mM) and NaCl (0.9%) in deionized water. The solutions were sonicated for 30 min, filtered through 0.45 μm Nylon syringe filters (Avantor, USA), placed in standard polystyrene cuvettes (BI-SCP, Brookhaven Instruments), and stored at 4 °C. All measurements were conducted at 25 °C. Measurement time was set to 5 min, and each measurement was repeated 5 times. The analysis of data was performed using Brookhaven Instruments software Particle Solutions v3.6.07136.
MADLS and size dependence on concentration and pH were measured on Zetasizer Ultra Red (Malvern Panalytical, UK) equipped with a 632.8 nm laser, applying detection angles 12.78°, 90°, and 174.7° in the case of MADLS measurements and 12.78° for size dependence measurements. MADLS and concentration dependence were measured in DTS0012 polystyrene cuvettes (Malvern Panalytical, UK); pH dependence was studied by acidobasic titration in DTS1070 folded capillary Zeta cell, using MPT-3 Multipurpose Titrator and DEG0003 Auto Degasser (all Malvern Panalytical, UK). The concentration dependence measurement started at 1.0 mM and the samples were diluted 2-fold until the minimum concentration 0.06 mM. For each concentration, the measurement was repeated 3 times giving 15 measurements in total. The pH dependence measurement started at pH 12; the titration was performed with a step of 2 and at each step, the measurement was repeated 3 times, giving 18 measurements in total. Malvern Panalytical software ZS Xplorer version 3.3.1.5 was used for the analysis of data.

The subject of series [2] is S. aureus MRSA—clinical isolate C1926. Kind of series: Microdilution broth MIC. The class given is cell-based. To be noted: Staphylococcus aureus, 24 h. For orientation: Broth dilution looks for growth in wells or tubes with falling amounts of substance.
The subject of another series is E. coli K12, CCM 7929. Kind of series: Microdilution broth MIC. The class given is cell-based. Particulars: Escherichia coli. The procedure: (§1) In vitro antibacterial activity of the prepared amp-DDNs (DnP6-1C12, DnP3-1C12, DnP3-2C12, and DnP3-2C18) was tested on a panel of four G+ (Staphylococcus aureus CCM 4516, methicillin-resistant S. aureus clinical isolate C1923, Staphylococcus epidermidis clinical isolate C1936, and vancomycin-resistant Enterococcus faecium clinical isolate S2484) and four G-bacterial strains (Escherichia coli K12, CCM 7929, E. coli clinical isolate A1235, extended-spectrum β-lactamase-producing (ESBL+) Klebsiella pneumoniae clinical isolate C1914, and multiresistant Pseudomonas aeruginosa clinical isolate A1245). CCM collection strains were obtained from the Czech Collection of Microorganisms. All clinical isolates were obtained during routine procedures in the clinical laboratory at the University Hospital Hradec Králové. All strains were stored at −70 °C in the Cryobank according to the manufacturer’s instructions. Subsequently, when needed, each bacterial strain was inoculated and cultivated on Mueller–Hinton agar (HiMedia, Cadersky-Envitek, Prague, Czech Republic).
(§2) The antibacterial susceptibility was determined by a microdilution broth method according to standard M07-A10,[55] and the optimized protocol has been published previously.[56],[57] Briefly, Mueller–Hinton broth (MHB) adjusted to pH 7.4 (±0.2) was used as the test medium. […] The wells of the microdilution tray contained 200 μL of the MHB with 2-fold serial dilutions of the compounds and were inoculated with 10 μL of the bacterial suspension. The bacterial suspensions were controlled densitometrically to reach 1.5 × 10^8 viable CFU per 1 mL. The minimum inhibitory concentration (MIC) values, defined as 95% inhibition of bacterial growth, were determined after 24 h of incubation at 35 °C ± 1 °C.

The test system of series [3] is E. coli—clinical isolate A1235. The series is described as follows: Microdilution broth MIC. The class given is cell-based. Particulars: Escherichia coli, 24 h. The procedure:
as §1, §2

Series [4] deals with E. faecium VRE—clinical isolate S2484. The series is described as follows: Microdilution broth MIC. The format is cell-based. Particulars: Enterococcus faecium, 24 h. The procedure: as §1, §2
Series [5] relates to K. pneumoniae ESBL+—clinical isolate C1914. The series is described as follows: Microdilution broth MIC. The class given is cell-based. Particulars: Klebsiella pneumoniae, 24 h. The procedure:
as §1, §2

Series [6] concerns P. aeruginosa MR—clinical isolate A1245. The series is described as follows: Microdilution broth MIC. The class given is cell-based. To be noted: Pseudomonas aeruginosa, 24 h. The procedure: as §1, §2
The test system of the next series is S. aureus CCM 4516. The series is described as follows: Microdilution broth MIC. The format is cell-based. To be noted: Staphylococcus aureus. As to the method:
as §1, §2

Series [7] relates to S. epidermidis—clinical isolate C1936. Kind of series: Microdilution broth MIC. The class given is cell-based. To be noted: Staphylococcus epidermidis, 24 h. As to the method:
as §1, §2

Series [8] concerns anti-miR-21 oligo(2′-O-methylribonucleotide). Kind of series: DLS of dendriplexes with anti-miR-21 oligonucleotide. The format is physicochemical. Particulars: for mean diameter of dendriplex: 0.9% NaCl. As to the method: Dendriplexes were characterized by DLS using Zetasizer Nano-S (Malvern Panalytical, UK) equipped with a 632.8 nm laser, applying detection angle 173°. Mean diameters from the intensity-weighted size distribution are given. Average results from three consecutive sets of measurements generated by Malvern Zetasizer Software version 7.13 are presented.
Amphiphilic dendrons (1.5–73 μM) were mixed with the anti-miR-21:5′-m([…]) (500 nM) in 0.9% NaCl solution in milli-Q water. The dendrons’ concentrations were chosen to attain the charge ratio (CR, the ratio of cations over anions in the sample) of 1.2, 2.5, 5, 10, or 20. The samples were incubated for 15 min at rt prior to measurements.

Where [9] appears, read: CCM7929, 24 h, 95% inhibition of growth, read-out: MIC.
[10] abbreviates: 95% inhibition of growth, read-out: MIC.
The mark [11] stands for this setting: CCM4516, 24 h, 95% inhibition of growth, read-out: MIC.

Like-named read-outs stand apart in the source and are kept apart here.

For orientation: MIC means the least concentration at which growth counts as inhibited. As to `CCCCCCCCCCCCNC(=O)c1cc(OCCC[Si](CCCSCC(=O)NCCC[P+](c2ccccc2)(c2ccccc2)c2ccccc2)(CCCSCC(=O)NCCC[P+](c2ccccc2)(c2ccccc2)c2ccccc2)CCCSCC(=O)NCCC[P+](c2ccccc2)(c2ccccc2)c2ccccc2)cc(C(=O)NCCCCCCCCCCCC)c1` [DnP3-2C12], in [1] (1.0 mM dendron, 0.9% NaCl), the PDI entry was “≈ 0.2”. The “mean size (DLS, intensity-weighted)” value is recorded as 21 nm in series [1] (1.0 mM dendron, 0.9% NaCl, 25 °C, start of testing period) and 25 nm in series [1] (1.0 mM dendron, 0.9% NaCl, after 75 day testing period, stored at 4 °C). Moreover, the “mean size of the second population (MADLS)” value in [1] (aggregates) was determined as 37 nm. The “mean diameter of the smaller particles (MADLS)” value in series [1] (isolated micelles) was determined as 10.0 nm. For the same compound, the MIC in series [2] is greater than 12.5 µM; against E. coli K12, CCM 7929 (CCM7929, 24 h), greater than 12.5 µM; in [3], greater than 12.5 µM; in series [4], greater than 12.5 µM; in series [5], greater than 12.5 µM; in [6], greater than 12.5 µM. Also, the MIC against S. aureus CCM 4516 (CCM4516, 24 h) is greater than 12.5 µM; in series [7] it was greater than 12.5 µM. For the same compound, the PI of dendriplex is 0.11 in series [8] (CR 1.2); 0.2 in series [8] (CR 2.5); 0.3 in series [8] (CR 5); 0.14 in series [8] (CR 10); 0.17 in series [8] (CR 20). The “mean diameter of dendriplex” value was 0.13 μm in series [8] (CR 1.2, anti-miR-21 500 nM); 0.8 μm in series [8] (CR 2.5, anti-miR-21 500 nM); 1.0 μm in series [8] (CR 5, anti-miR-21 500 nM); 0.18 μm in series [8] (CR 10, anti-miR-21 500 nM); 0.14 μm in series [8] (CR 20, anti-miR-21 500 nM).
Take `CCCCCCCCCCCCCCCCCCNC(=O)c1cc(OCCC[Si](CCCSCC(=O)NCCC[P+](c2ccccc2)(c2ccccc2)c2ccccc2)(CCCSCC(=O)NCCC[P+](c2ccccc2)(c2ccccc2)c2ccccc2)CCCSCC(=O)NCCC[P+](c2ccccc2)(c2ccccc2)c2ccccc2)cc(OCCC[Si](CCCSCC(=O)NCCC[P+](c2ccccc2)(c2ccccc2)c2ccccc2)(CCCSCC(=O)NCCC[P+](c2ccccc2)(c2ccccc2)c2ccccc2)CCCSCC(=O)NCCC[P+](c2ccccc2)(c2ccccc2)c2ccccc2)c1` [DnP6-1C18]: the MIC in [2] was 6.25 µM; in the series on E. coli K12, CCM 7929 (CCM7929, 24 h), greater than 6.25 µM; in series [3], greater than 6.25 µM; in series [4], 6.25 µM; in series [5], greater than 6.25 µM; in [6] it was greater than 6.25 µM. Moreover, the minimum inhibitory concentration (MIC) against S. aureus CCM 4516 (CCM4516, 24 h) is 6.25 µM; in series [7], 6.25 µM. The PI of dendriplex was 0.05 in [8] (CR 1.2), 0.3 in [8] (CR 2.5), 0.3 in series [8] (CR 5) and 0.3 in [8] (CR 10). Further, the “mean diameter of dendriplex” value was 0.18 μm in series [8] (CR 1.2, anti-miR-21 500 nM); greater than 1 μm in [8] (CR 2.5, anti-miR-21 500 nM); greater than 1 μm in series [8] (CR 5, anti-miR-21 500 nM); greater than 1 μm in series [8] (CR 10, anti-miR-21 500 nM).
With `CCCCCCCCCCCCNC(=O)c1ccc(OCCC[Si](CCCSCC(=O)NCCC[P+](c2ccccc2)(c2ccccc2)c2ccccc2)(CCCSCC(=O)NCCC[P+](c2ccccc2)(c2ccccc2)c2ccccc2)CCCSCC(=O)NCCC[P+](c2ccccc2)(c2ccccc2)c2ccccc2)cc1` [DnP3-1C12], the MIC in [2] is 3.13 µM; in the series on E. coli K12, CCM 7929 (setting [9]), 6.25 µM; in series [3] (setting [10]), 12.5 µM; in series [4], 1.15 µM; in series [5] it was greater than 12.5 µM; in [6], greater than 12.5 µM. The MIC stood at 3.13 µM in the series with S. aureus CCM 4516 (setting [11]) and 1.56 µM in [7] (setting [10]). Further, the PI of dendriplex came to 0.07 in series [8] (CR 1.2), 0.2 in series [8] (CR 2.5), 0.3 in series [8] (CR 5) and 0.1 in [8] (CR 10). In addition, the “mean diameter of dendriplex” value in [8] (CR 1.2, anti-miR-21 500 nM) is 0.14 μm; in series [8] (CR 2.5, anti-miR-21 500 nM), 0.9 μm; in series [8] (CR 5, anti-miR-21 500 nM), greater than 1 μm; in series [8] (CR 10, anti-miR-21 500 nM), greater than 1 μm.
For `CCCCCCCCCCCCCCCCCCNC(=O)c1ccc(OCCC[Si](CCCSCC(=O)NCCC[P+](c2ccccc2)(c2ccccc2)c2ccccc2)(CCCSCC(=O)NCCC[P+](c2ccccc2)(c2ccccc2)c2ccccc2)CCCSCC(=O)NCCC[P+](c2ccccc2)(c2ccccc2)c2ccccc2)cc1` [DnP3-1C18], the minimum inhibitory concentration (MIC) in [2] is 6.25 µM; in the series with E. coli K12, CCM 7929 (setting [9]) it was greater than 6.25 µM; in series [3] (setting [10]), greater than 6.25 µM; in series [4], 6.25 µM; in series [5], greater than 6.25 µM; in series [6] it was greater than 6.25 µM. The MIC in the series on S. aureus CCM 4516 (setting [11]) is 6.25 µM; in series [7] (setting [10]), 3.13 µM. Also, the PI of dendriplex is reported as 0.14 in [8] (CR 1.2), 0.2 in [8] (CR 2.5), 0.4 in series [8] (CR 5) and 0.3 in series [8] (CR 10). Moreover, the “mean diameter of dendriplex” value is listed as 0.23 μm in series [8] (CR 1.2, anti-miR-21 500 nM); 0.5 μm in series [8] (CR 2.5, anti-miR-21 500 nM); greater than 1 μm in series [8] (CR 5, anti-miR-21 500 nM); greater than 1 μm in series [8] (CR 10, anti-miR-21 500 nM).
Regarding `CCCCCCCCCCCCNC(=O)c1cc(OCCC[Si](CCCSCC(=O)NCCC[P+](c2ccccc2)(c2ccccc2)c2ccccc2)(CCCSCC(=O)NCCC[P+](c2ccccc2)(c2ccccc2)c2ccccc2)CCCSCC(=O)NCCC[P+](c2ccccc2)(c2ccccc2)c2ccccc2)cc(OCCC[Si](CCCSCC(=O)NCCC[P+](c2ccccc2)(c2ccccc2)c2ccccc2)(CCCSCC(=O)NCCC[P+](c2ccccc2)(c2ccccc2)c2ccccc2)CCCSCC(=O)NCCC[P+](c2ccccc2)(c2ccccc2)c2ccccc2)c1` [DnP6-1C12], the MIC in [2] is 6.25 µM; against E. coli K12, CCM 7929 (CCM7929, 24 h), 6.25 µM; in series [3] it was 6.25 µM; in [4], 3.13 µM; in series [5], 12.5 µM; in [6] it was no less than 12.5 µM. For the same compound, the MIC with S. aureus CCM 4516 (CCM4516, 24 h) was 6.25 µM; in series [7] it was 1.56 µM. The PI of dendriplex in series [8] (CR 1.2) amounted to 0.08; in series [8] (CR 2.5), 0.2; in series [8] (CR 5) it was 0.10; in series [8] (CR 10), 0.05. For the same compound, the “mean diameter of dendriplex” value was 0.22 μm in [8] (CR 1.2, anti-miR-21 500 nM); 0.8 μm in series [8] (CR 2.5, anti-miR-21 500 nM); 0.8 μm in series [8] (CR 5, anti-miR-21 500 nM); 0.8 μm in series [8] (CR 10, anti-miR-21 500 nM).

For the origin of these results see publication PMC11632778, “Adaptive Synthesis, Supramolecular Behavior, and Biological Properties of Amphiphilic Carbosilane-Phosphonium Dendrons with Tunable Structure” (Biomacromolecules, 2024).
